Measured values as given in PubChem BioAssay (NCI).
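Values below derive from 48-hour exposures of cells grown in 96-well plates, with endpoints linearly interpolated between the two concentrations bracketing the appropriate inhibition level. GI50 marks 50% less growth. The concentration for full growth arrest is given as TGI.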

Assays:
Assay in all cases: NCI tumour cell line growth inhibition, 48 h
[1] = test system: MDA-N
[2] = test system: DMS 114 small cell lung
[3] = test system: DMS 273 small cell lung
[4] = test system: HOP-18 NSCLC
[5] = test system: LXFL 529 NSCLC
[6] = test system: M19-MEL melanoma
[7] = test system: SNB-78 CNS
[8] = test system: XF 498 CNS
[9] = test system: RXF-631 renal
[10] = test system: P388/ADR leukemia
[11] = test system: SN12K1 renal

Row | SMILES | TGI [1] | TGI [2] | TGI [3] | TGI [4] | TGI [5] | TGI [6] | TGI [7] | TGI [8] | TGI [9] | other results
1 | CC(=O)[O][Hg][c]1c(C)c(C)cc(C)c1C | 2.08 µM | – | – | – | – | – | – | – | – | GI50 [1]: 0.83 µM
2 | CC(=O)O[C@H]1CC[C@@]2(C)C(=CC[C@@H]3C2CC[C@]2(C)Nc4nc5ccccc5cc4CC32)C1 (stereo partly specified) | – | 18 µM | 13.8 µM | 13.5 µM | 12 µM | 12.2 µM | 21.1 µM | 18.5 µM | – | –
3 | C=CCc1cc(OC)c2c(c1)C(OC)CC(c1ccc(OC)c(OC)c1)O2 (stereo unspecified) | – | > 100 µM | > 100 µM | – | > 100 µM | > 100 µM | > 100 µM | > 100 µM | > 100 µM | –
4 | Nc1ncnc2c1ncn2C1OC(CO)C(O)C1N (stereo unspecified) | > 100 µM | – | – | – | – | – | – | – | – | –
5 | Cn1nc(-c2ccccc2)c2c(/C=C/c3ccccc3)onc2c1=O | – | > 100 µM | – | > 100 µM | > 100 µM | > 100 µM | > 100 µM | 72.4 µM | > 100 µM | –
6 | CCc1nc(N)nc(N)c1-c1ccc(N2CCNCC2)cc1 | > 100 µM | – | – | – | – | – | – | – | – | –
7 | CSc1ccc2c(c1)C(N1CCN(C)CC1)Cc1ccccc1S2 (stereo unspecified) | 12.1 µM | – | – | – | – | – | – | – | – | –
8 | Cc1ccc(S(=O)(=O)NC(CN)C(=O)O)cc1 (stereo unspecified) | > 100 µM | – | – | – | – | – | – | – | – | –
9 | CC1(c2ccc(Cl)cc2)C2C(=O)NC(=O)C1C(=O)NC2=O (stereo unspecified) | – | – | > 100 µM | – | > 100 µM | > 100 µM | > 100 µM | > 100 µM | – | –
10 | COC(=O)CSSCc1ccc([N+](=O)[O-])cc1 | 34.7 µM | – | – | – | – | – | – | – | – | –
11 | CN(c1ccccc1)c1c(Cl)c(=O)oc2c1ccc1occc12 | – | > 100 µM | > 100 µM | > 100 µM | > 100 µM | > 100 µM | > 100 µM | – | > 100 µM | –
12 | CCOC(=O)C1(C)CCCCC(=O)N1 (stereo unspecified) | – | > 100 µM | > 100 µM | > 100 µM | > 100 µM | > 100 µM | > 100 µM | > 100 µM | > 100 µM | –
13 | CC(=O)OC1COC(n2c(=S)n(-c3ccccc3)c(=O)c3ccccc32)C(OC(C)=O)C1OC(C)=O (stereo unspecified) | – | > 100 µM | > 100 µM | > 100 µM | > 100 µM | – | > 100 µM | > 100 µM | > 100 µM | –
14 | c1ccc2c(c1)cc1n2CC2CN=NC12 (stereo unspecified) | – | – | > 100 µM | – | > 100 µM | > 100 µM | > 100 µM | – | > 100 µM | –
15 | C=C1C(=O)OC2/C=C(/C)C(OC(C)=O)C/C=C(\C)C(OC(=O)C3(C)OC3C)C(O)C12 (stereo unspecified) | > 100 µM | – | – | – | – | – | – | – | – | –
16 | CC(=O)NNc1nc(C)c(C(=O)NNC(=O)C(=O)Nc2ccc(Cl)cc2Cl)s1 | – | > 100 µM | – | – | > 100 µM | > 100 µM | > 100 µM | > 100 µM | – | –
17 | CN(C)C(=S)SCC(=O)Nc1ccccc1 | > 100 µM | – | – | – | – | – | – | – | – | –
18 | COC(=O)C=Cc1ccc2nncnc2c1 (mixture of isomers) | 46.1 µM | – | – | – | – | – | – | – | – | –

Row | SMILES | TGI [1] | TGI [2] | TGI [3] | TGI [4] | TGI [5] | TGI [6] | TGI [7] | TGI [8] | TGI [9] | other results
19 | CC(SC(=O)Nc1ccc(N=Nc2ccccc2)cc1)C(=O)O (stereo unspecified) | – | > 100 µM | > 100 µM | – | > 100 µM | – | > 100 µM | – | – | –
20 | CC(=O)C1=C(O)C2C3c4c[nH]c5cccc(c45)CC3C(C)(C)N2C1=O (stereo unspecified) | – | > 100 µM | > 100 µM | 75.8 µM | > 100 µM | > 100 µM | > 100 µM | > 100 µM | – | –
21 | CCOc1ccc(NC(=O)CC2C(=O)Nc3ccccc3S2(=O)=O)cc1 (stereo unspecified) | – | > 100 µM | – | > 100 µM | > 100 µM | > 100 µM | > 100 µM | > 100 µM | > 100 µM | –
22 | O=S(=O)(c1cnccc1N1CCN(CCO)CC1)N1CCCC1 | > 100 µM | – | – | – | – | – | – | – | – | –
23 | NC(=O)NC1C(C(N)=O)N(Cc2ccccc2)C(=O)N1Cc1ccccc1 (stereo unspecified) | – | > 100 µM | > 100 µM | > 100 µM | > 100 µM | > 100 µM | > 100 µM | > 100 µM | > 100 µM | –
24 | Cc1ccc(S(=O)(=O)N/N=C(/c2nc3ccc([N+](=O)[O-])cc3[nH]c2=O)C(O)c2ccc(C(O)/C(=N\NS(=O)(=O)c3ccc(C)cc3)c3nc4ccc([N+](=O)[O-])cc4[nH]c3=O)cc2)cc1 (stereo unspecified) | – | > 100 µM | > 100 µM | – | > 100 µM | – | > 100 µM | > 100 µM | > 100 µM | –
25 | Brc1ccc2ns[s+]c2c1 | – | > 100 µM | > 100 µM | > 100 µM | > 100 µM | > 100 µM | > 31.6 µM | > 100 µM | > 100 µM | –
26 | CC(=O)NC(CC(C)C)C(=O)NC(Cc1ccccc1)C(=S)N1CCCC1 (stereo unspecified) | – | > 100 µM | > 100 µM | – | > 100 µM | > 100 µM | – | > 100 µM | > 100 µM | –
27 | CC(C)(C)C(C#N)(C#N)c1ccc(C(C#N)(C#N)C(C)(C)C)nn1 | – | > 100 µM | > 100 µM | – | > 100 µM | > 100 µM | > 100 µM | > 100 µM | > 100 µM | –
28 | CC1=C(C(=O)Nc2cc(F)c(F)cc2F)C(c2ccc([N+](=O)[O-])cc2)C(C(=O)Nc2cc(F)c(F)cc2F)=C(C)N1 | – | > 100 µM | – | – | > 100 µM | > 100 µM | > 100 µM | – | – | –
29 | O=C(NNc1ccccc1)/C(=C/c1ccc2c(c1)OCO2)NC(=O)c1ccccc1 | – | – | > 100 µM | > 100 µM | > 100 µM | – | > 100 µM | > 100 µM | – | –
30 | CN(C)CCNC(=O)c1cccc2c1Oc1c(cccc1[N+](=O)[O-])O2 | 12.6 µM | – | – | – | – | – | – | – | – | –
31 | O=P(O)(O)C1(P(=O)(O)O)CC1 | – | > 100 µM | > 100 µM | – | > 100 µM | > 100 µM | > 100 µM | > 100 µM | – | –
32 | CCOC(=O)COc1ccc2c(C)cc(=O)oc2c1 | > 100 µM | – | – | – | – | – | – | – | – | –
33 | CC1=C(C(=O)Nc2ccc(Cl)c(C(=O)OC(C)C)c2)SCCO1 | – | – | 73.1 µM | > 100 µM | – | 75.5 µM | > 100 µM | > 91.3 µM | – | TGI [10]: 46.4 µM; TGI [11]: 63.1 µM
34 | COc1ccc(/C=C/C(=O)c2sc(-n3nc(-c4ccccc4)cc3-c3ccccc3)nc2C)cc1 | – | > 100 µM | – | > 100 µM | > 100 µM | > 100 µM | – | > 100 µM | > 100 µM | GI50 [4]: > 100 µM; GI50 [5]: > 100 µM; GI50 [6]: > 100 µM; GI50 [9]: > 100 µM
35 | Cc1cc(N2CCN(C)CC2)n2nc(-c3ccc(Cl)cc3)nc2n1 | > 100 µM | – | – | – | – | – | – | – | – | –
36 | CCCCCCC[CH2][Sn]1([CH2]CCCCCCC)[O]C(=O)c2cccnc2[O]1 | – | > 100 µM | > 100 µM | – | > 100 µM | > 100 µM | > 100 µM | > 100 µM | > 100 µM | GI50 [2]: > 100 µM; GI50 [3]: > 100 µM; GI50 [5]: > 100 µM; GI50 [6]: > 100 µM; GI50 [9]: > 100 µM; GI50 [7]: > 100 µM; GI50 [8]: 42.3 µM
